In this experiment the test system is BDF1 mice, P388 leukemia ip, median survival T/C. Description: NCI In Vivo Anticancer Drug Screen. Data for tumor model P388 Leukemia (intraperitoneal) in B6D2F1 (BDF1) mice. Conditions: endpoint: median survival time, higher = longer survival. In a few lines:
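Vehicle-dosed animals serve as the reference; survival of compound-dosed, tumour-implanted mice is divided by it.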

[1] abbreviates: dose: 12.5 mg/kg/injection, schedule: Q01DX009 (ip), vehicle: saline with Tween-80.
Setting [2] is: dose: 25.0 mg/kg/injection, schedule: Q01DX009 (ip), vehicle: saline with Tween-80.
The mark [3] stands for this setting: dose: 50.0 mg/kg/injection, schedule: Q01DX009 (ip), vehicle: saline with Tween-80.
Where [4] appears, read: dose: 100.0 mg/kg/injection, schedule: Q01DX009 (ip), vehicle: saline.
The mark [5] stands for this setting: dose: 100.0 mg/kg/injection, schedule: Q04DX003 (ip), vehicle: saline.
Setting [6] is: dose: 200.0 mg/kg/injection, schedule: Q01DX009 (ip), vehicle: saline.
The mark [7] stands for this setting: dose: 200.0 mg/kg/injection, schedule: Q04DX003 (ip), vehicle: saline.
[8] abbreviates: dose: 400.0 mg/kg/injection, schedule: Q04DX003 (ip), vehicle: saline.
Setting [9] is: dose: 100.0 mg/kg/injection, schedule: Q04DX003 (ip), vehicle: saline with Tween-80.
The mark [10] stands for this setting: dose: 200.0 mg/kg/injection, schedule: Q04DX003 (ip), vehicle: saline with Tween-80.
The mark [11] stands for this setting: dose: 400.0 mg/kg/injection, schedule: Q04DX003 (ip), vehicle: saline with Tween-80.

Several values for one entry are separate records, joined by “and”; a condition that tells them apart may be missing. Equal entries are not always repeated. Inconclusive results and toxic doses are left out. Non-standard residues stand in square brackets, D forms with d. Residues, ends and D or L forms follow the SMILES beside them. ξ: configuration not given here. ξPhe(4-N(CH2CH2Cl)2) = NC(Cc1ccc(N(CCCl)CCCl)cc1)C(=O)O

In the case of `CCN(c1ccc2c(c1)C(=O)c1ccccc1-2)S(=O)(=O)c1ccc(C)cc1`, the T/C (dose: 100.0 mg/kg/injection, schedule: Q04DX003 (ip), vehicle: Klucel (hydroxypropylcellulose) (HPC)) was 100 % of control; the T/C (dose: 200.0 mg/kg/injection, schedule: Q04DX003 (ip), vehicle: Klucel (hydroxypropylcellulose) (HPC)) is 104 % of control; the T/C (dose: 400.0 mg/kg/injection, schedule: Q04DX003 (ip), vehicle: Klucel (hydroxypropylcellulose) (HPC)) was 95 % of control.
In the case of `O=S(=O)(O)c1cc(S(=O)(=O)O)c2cc(N=Nc3ccc(N(CC4CO4)CC4CO4)cc3)ccc2c1` (centres undefined), the T/C is 108 % of control (dose: 100.0 mg/kg/injection, schedule: Q01DX001 (ip), vehicle: saline); 102 % of control (dose: 200.0 mg/kg/injection, schedule: Q01DX001 (ip), vehicle: saline); 113 % of control (dose: 400.0 mg/kg/injection, schedule: Q01DX001 (ip), vehicle: saline).
`CCOc1ccc(-c2cc(C)n(C)[n+]2C)cc1`: the T/C under setting [1] is 100 % of control, the T/C under setting [2] is 98 % of control and the T/C under setting [3] was 92 % of control.
For `OC(COC(c1ccccc1)(c1ccccc1)c1ccccc1)C(O)CC1SCCS1` (centres undefined), the T/C is 100 % of control (dose: 100.0 mg/kg/injection, schedule: Q01DX009 (ip), vehicle: saline sonified); 112 % of control (dose: 100.0 mg/kg/injection, schedule: Q04DX003 (ip), vehicle: saline sonified); 110 % of control (dose: 200.0 mg/kg/injection, schedule: Q01DX009 (ip), vehicle: saline sonified); 100 % of control (dose: 200.0 mg/kg/injection, schedule: Q04DX003 (ip), vehicle: saline sonified); 95 % of control (dose: 400.0 mg/kg/injection, schedule: Q01DX009 (ip), vehicle: saline sonified); 108 % of control (dose: 400.0 mg/kg/injection, schedule: Q04DX003 (ip), vehicle: saline sonified).
Consider `Nc1nc(N)c2cc(CNc3ccc(Cl)c(C(=O)NC(CC(=O)O)C(=O)O)c3)cnc2n1` (centres undefined), for which the T/C is 100 % of control under setting [4]; 102 % of control under setting [5]; 100 % of control under setting [6]; 99 % of control under setting [7]; 108 % of control (dose: 400.0 mg/kg/injection, schedule: Q01DX009 (ip), vehicle: saline); 94 % of control under setting [8].
`CC(=O)N(C)C`: the T/C by setting is: (dose: 300.0 mg/kg/injection, schedule: Q01DX010 (ip), vehicle: saline) 104 % of control; (dose: 600.0 mg/kg/injection, schedule: Q01DX010 (ip), vehicle: saline) 104 % of control; (dose: 1200.0 mg/kg/injection, schedule: Q01DX010 (ip), vehicle: saline) 119 % of control; (dose: 2400.0 mg/kg/injection, schedule: Q01DX010 (ip), vehicle: saline) 119 % of control; (dose: 3600.0 mg/kg/injection, schedule: Q01DX010 (ip), vehicle: saline) 168 % of control.
Take `CCCCCCCC(=O)Nc1cc(C(F)(F)F)ccc1Cl`: the T/C runs as follows: (dose: 100.0 mg/kg/injection, schedule: Q04DX003 (ip), vehicle: other) 100 % of control; (dose: 200.0 mg/kg/injection, schedule: Q04DX003 (ip), vehicle: other) 109 % of control; (dose: 400.0 mg/kg/injection, schedule: Q04DX003 (ip), vehicle: other) 104 % of control.
`O=[N+]([O-])c1ccc(SCc2ccccc2)c2c1no[n+]2[O-]`: the T/C is 105 % of control (dose: 15.0 mg/kg/injection, schedule: Q01DX009 (ip), vehicle: saline with Tween-80); 96 % of control (dose: 30.0 mg/kg/injection, schedule: Q01DX009 (ip), vehicle: saline with Tween-80); 93 % of control (dose: 60.0 mg/kg/injection, schedule: Q01DX009 (ip), vehicle: saline with Tween-80).
As to `CCCCCCCCOP(=O)(N1CC1)N1CC1`, the T/C is 170 % of control (dose: 12.5 mg/kg/injection, schedule: Q04DX003 (ip), vehicle: saline); 150 % of control (dose: 14.0 mg/kg/injection, schedule: Q04DX003 (ip), vehicle: saline); 154 % of control (dose: 21.0 mg/kg/injection, schedule: Q04DX003 (ip), vehicle: saline); 183 % of control (dose: 25.0 mg/kg/injection, schedule: Q01DX009 (ip), vehicle: saline); 160 % of control (dose: 25.0 mg/kg/injection, schedule: Q04DX003 (ip), vehicle: saline); 211 % of control (dose: 33.0 mg/kg/injection, schedule: Q01DX009 (ip), vehicle: saline). The T/C (dose: 33.0 mg/kg/injection, schedule: Q04DX003 (ip), vehicle: saline) was 180 % of control and 222 % of control; the T/C (dose: 50.0 mg/kg/injection, schedule: Q01DX009 (ip), vehicle: saline) was 230 % of control and 250 % of control; the T/C (dose: 50.0 mg/kg/injection, schedule: Q04DX003 (ip), vehicle: saline) is 242 % of control and 285 % of control; the T/C (dose: 75.0 mg/kg/injection, schedule: Q01DX009 (ip), vehicle: saline) was 111 % of control; the T/C (dose: 75.0 mg/kg/injection, schedule: Q04DX003 (ip), vehicle: saline) is 285 % of control.
With `Cc1ccc(C(=O)C(Br)C(Br)c2ccccc2)cc1` (centres undefined), the T/C by setting is: under setting [9], 95 % of control; under setting [10], 94 % of control; under setting [11], 103 % of control.
Turning to `CC[C@]1(O)CC(OC2CC(N(C)C)C(O)C(C)O2)c2c(cc3c(c2O)C(=O)c2c(O)cccc2C3=O)[C@@H]1C(=O)OC` (some centres undefined), the T/C was 104 % of control and 110 % of control (dose: 1.25 mg/kg/injection, schedule: Q01DX001 (ip), vehicle: saline); 100 % of control and 109 % of control (dose: 2.5 mg/kg/injection, schedule: Q01DX001 (ip), vehicle: saline); 100 % of control (dose: 5.0 mg/kg/injection, schedule: Q01DX001 (ip), vehicle: saline); 100 % of control (dose: 10.0 mg/kg/injection, schedule: Q01DX001 (ip), vehicle: saline).
With `Cc1nc(Cl)c(C(N)=O)nc1C`, the T/C by setting is: under setting [1], 91 % of control; under setting [2], 88 % of control and 94 % of control; under setting [3], 97 % of control; (dose: 50.0 mg/kg/injection, schedule: Q04DX003 (ip), vehicle: saline with Tween-80) 113 % of control; (dose: 100.0 mg/kg/injection, schedule: Q01DX009 (ip), vehicle: saline with Tween-80) 90 % of control and 106 % of control; under setting [9], 96 % of control. Also, the T/C (dose: 150.0 mg/kg/injection, schedule: Q01DX009 (ip), vehicle: saline with Tween-80) was 97 % of control; the T/C under setting [10] was 92 % of control; the T/C under setting [11] is 99 % of control.
As for `NC(CO)C(=O)NC(CCC(=O)O)C(=O)NC(CO)C(=O)NC(CCC(=O)O)C(=O)NC(Cc1ccc(N(CCCl)CCCl)cc1)C(=O)O` (centres undefined) (H-SESE[ξPhe(4-N(CH2CH2Cl)2)]-OH; configuration not given here), the T/C by setting is: (dose: 5.0 mg/kg/injection, schedule: Q04DX003 (ip), vehicle: water) 100 % of control; (dose: 10.0 mg/kg/injection, schedule: Q04DX003 (ip), vehicle: water) 98 % of control; (dose: 20.0 mg/kg/injection, schedule: Q04DX003 (ip), vehicle: water) 97 % of control; (dose: 40.0 mg/kg/injection, schedule: Q04DX003 (ip), vehicle: water) 100 % of control.
As for `COc1cc2ccc3c(c2cc1OC)CN1CCc2cc4c(cc2C1C3)OCO4` (centres undefined), the T/C runs as follows: (dose: 44.0 mg/kg/injection, schedule: Q01DX009 (ip), vehicle: saline with Tween-80) 115 % of control; under setting [3], 120 % of control; under setting [5], 118 % of control; (dose: 200.0 mg/kg/injection, schedule: Q01DX009 (ip), vehicle: saline with Tween-80) 112 % of control; under setting [7], 100 % of control; under setting [8], 100 % of control.
As for `CCCCCCCC(=O)CCCCC`, the T/C was 100 % of control under setting [9], 95 % of control under setting [10] and 91 % of control under setting [11].
Turning to `CC1(C)N=C(N)N=C(N)N1c1ccc(CNC(=O)Nc2ccc(S(=O)(=O)F)cc2)cc1`, the T/C was 115 % of control under setting [4]; 150 % of control under setting [5]; 181 % of control and 190 % of control (dose: 132.0 mg/kg/injection, schedule: Q04DX003 (ip), vehicle: saline); 100 % of control under setting [6]; 150 % of control and 177 % of control and 205 % of control under setting [7]; 230 % of control and 154 % of control (dose: 300.0 mg/kg/injection, schedule: Q04DX003 (ip), vehicle: saline). The T/C under setting [8] is 163 % of control.

These data come from PubChem BioAssay AID328 (DTP/NCI, 2004).
